Experimental findings from patent US8580545B2, “Biodegradable linkers for molecular therapies” (The Children's Hospital of Philadelphia, priority 2004, dated 2013) are described below.

This series is described as follows: Hydrolysis of the ester bond of the cross-linker (model experiments). To be noted: 37° C.

As to `O=C(CCSSc1ccccn1)NCCCOC(=O)CCCCC(=O)ON1C(=O)CC(S(=O)(=O)[O-])C1=O.[Na+]` (centres unmarked) [cross-linker 1], the “t1/2 of the ester bond hydrolysis” value is “several weeks”.

Turning to `O=C(CCCCC(=O)ON1C(=O)CC(S(=O)(=O)[O-])C1=O)NCC(=O)OCCSSc1ccccn1.[Na+]` (centres unmarked) [cross-linker 2], the “t1/2 of the ester bond hydrolysis” value is given as “several days”.
